Laboratory results published in patent US20070207981A1, “MICRO-ENCAPSULATION OF VOLATILE COMPOUNDS INTO CYCLODEXTRINS: A NEW TECHNOLOGY TO REDUCE POST HARVEST LOSSES” (priority 2006, published 2007).

Columns and labels:
Penicillium sp. = experiment: Growth of Penicillium sp. in vitro in the presence of pure volatiles; assay type: cell-based; conditions: for Penicillium fungal development delayed: after 7 days at 23° C.
Procedure: (§1) In accordance with still another embodiment of the present invention, growth of Penicillium sp. and Aspergillus Niger was evaluated in vitro in the presence of hexanal, acetaldehyde and 2E-hexenal. The fungistatic and fungicidal effects of the pure volatiles were evaluated and presented below.

[1] = oral, mammalian; cited from earlier work
Colletotrichum acutatum = experiment: Growth of C. acutatum exposed to volatile vapour in closed jars at 23° C.; conditions: 7 days at 23° C.; for concentration that completely inhibited / avoided C. acutatum growth: headspace concentration
From the text: (§2) Fourteen-day-old surface-plated cultures of Colletotricumn acutatum, Alternaria alternata and Botrytis cinerea in plastic Petri dishes (9 cm diameter), were filled aseptically with PDA medium (Potato Dextrose Agar) (Sigma-Aldrich Corp. (Saint Louis, Mo.)), and mixed with a few drops of sterile distilled water. Ten mL of each were collected inside plastic tubes which were shaken hard to dislodge spores from mycelia. The spores and cell suspensions were then filtered with sterile cheesecloth to remove debris such as mycelia and condensed-agar fragments and the aliquot was concentrated to 10^6 c.f.u./mL (spore*mL^−1), which were counted by the Neubauer improved method (Bright-Line Hemacytometer, Hausser Scientific, Horsham, Pa.).
(§3) Smaller Petri dishes (5.5 cm diameter) were also filled aseptically with PDA. Upon solidification of the agar medium, a drop of spores of each suspension was inserted as a drop in the centre of the well with a 100 μL Oxford Autoclavable Benchmate Pipette (Nichiryo, Japan). Finally, the Petri dishes were placed inside 1 L-glass jars which were closed with twist-off tops and stored at 23° C. These were used as the controls.
(§4) Other jars were modified for inserting and withdrawing of the volatiles obtained from the bioassays. For that, jars tops were modified by introducing a septum through which the volatile was inserted on a small piece of glass which was suspended 4 cm above the bottom. The same device was used to withdraw samples during storage. […]
(§5) Radial growth of the cultures in controls and treated samples were evaluated daily by measuring the surface area of the plate occupied by the colony during incubation or by measuring the length of the colony. […] Each assay was tested in triplicate and the area means calculated were analyzed statistically by analysis of variance. The delay in fungal growth was expressed as direct radial growth of cultures in cm^2 or cm as a percentage of colony growth by comparing samples exposed to the anti-fungal treatments with the controls. […]

Aspergillus Niger = experiment: Growth of Aspergillus niger in vitro in the presence of pure volatiles; assay type: cell-based; conditions: 4 μL of volatile, after 7 days at room temperature
Procedure: as §1

Alternaria alternata = experiment: Growth of A. alternata exposed to volatile vapour in closed jars at 23° C.; conditions: 7 days at 23° C.; for concentration that completely inhibited / avoided A. alternata growth: headspace concentration
From the text: as §2, §3, §4, §5

Botrytis cinerea = experiment: Growth of B. cinerea exposed to volatile vapour in closed jars at 23° C.; conditions: 7 days at 23° C.
From the text: as §2, §3, §4, §5

Structure (SMILES) | Penicillium growth (Penicillium sp.; 1 μL of volatile, 1 week at 23° C.) | ORL-MAM LD50 [1] | concentration that completely inhibited / avoided C. acutatum growth (Colletotrichum acutatum) | A. niger delay in growth (Aspergillus Niger) | concentration that completely inhibited / avoided A. alternata growth (Alternaria alternata) | prevention of B. cinerea growth (Botrytis cinerea; any amount tested) | concentration that completely inhibited C. acutatum growth, equivalent ppm of volatile (Colletotrichum acutatum) | Penicillium fungal development delayed (Penicillium sp.; insertion of 4 μL of volatile) | Penicillium fungal development delayed (Penicillium sp.; insertion of 6 μL of volatile) | concentration that completely inhibited A. alternata growth, equivalent ppm of volatile (Alternaria alternata) | concentration that completely inhibited B. cinerea growth, equivalent ppm of volatile (Botrytis cinerea) | concentration that completely inhibited B. cinerea growth (Botrytis cinerea; headspace concentration)
CCC/C=C/C=O [2E-hexenal] | not able to grow | – | – | – | – | – | – | – | – | – | – | –
CC=O [acetaldehyde] | – | 250 mg/kg | 0.44 μg/mL air | over 66% | 0.10 μg/mL air | able to prevent | – | – | – | – | – | –
CCCCCC=O [hexanal] | – | – | 0.91 μg/mL air | – | 1.91 μg/mL air | – | 1.5 ppm | over 18% | > 74% | 7 ppm | 4 ppm | 1.05 μg/mL air
